In patent US12459967B2, “Modulators of 5′-nucleotidase, ecto and the use thereof” (Arcus Biosciences, Inc., priority 2016, dated 2025) one finds IC50 data, which are given here for six molecules.

The target of this test is T1, human CD73 (Homo sapiens, UniProt P21589).
T1 construct: host or cells: CHO-K1 (suspension pool CHO-CD73)
T1 sequence (P21589 27-549): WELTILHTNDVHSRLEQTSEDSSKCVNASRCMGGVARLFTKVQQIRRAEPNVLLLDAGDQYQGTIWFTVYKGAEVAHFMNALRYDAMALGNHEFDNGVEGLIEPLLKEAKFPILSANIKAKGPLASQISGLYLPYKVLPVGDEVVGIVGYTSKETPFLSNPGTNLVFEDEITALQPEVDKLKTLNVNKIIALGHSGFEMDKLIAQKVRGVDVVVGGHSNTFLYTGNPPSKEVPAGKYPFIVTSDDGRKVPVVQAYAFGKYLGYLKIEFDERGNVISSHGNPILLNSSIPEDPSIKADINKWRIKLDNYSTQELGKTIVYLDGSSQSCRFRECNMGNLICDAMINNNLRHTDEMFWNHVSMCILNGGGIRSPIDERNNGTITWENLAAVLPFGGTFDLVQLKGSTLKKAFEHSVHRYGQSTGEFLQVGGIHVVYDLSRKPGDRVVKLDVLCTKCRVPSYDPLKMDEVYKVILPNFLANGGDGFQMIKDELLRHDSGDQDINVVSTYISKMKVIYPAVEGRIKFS
Nature of the test: Inhibition of ecto-5′-nucleotidase (CD73) activity in CHO-CD73 cells, phosphate colorimetric readout. The settings on record: CHO-K1 cells stably transfected with human CD73, 2500 cells per well, 25 μM AMP substrate, 50 minutes incubation at 37° C.; read-out: Potency: CD73 IC50. It is filed as cell-based. The method, boiled down: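 Phosphate generated from 25 μM AMP was the read-out (absorbance 620 nm) after 50 min at 37 °C with 2500 human CD73-transfected CHO-K1 cells per well, pH 7.4 HEPES buffer, 2% DMSO. % activity, normalised to DMSO and cell-free wells, was fitted by four-parameter regression to give IC50.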

The structures appear in SMILES notation.

Usually IC50 stands for the midpoint of a concentration-inhibition curve. In the case of `CC(C)(C)c1ccc(CNc2nc(Cl)nc3c2ncn3[C@@H]2O[C@H](COP(=O)(O)CP(=O)(O)O)[C@@H](O)[C@H]2O)cc1`, the IC50 is < 100 nM.

For the molecule `O=P(O)(O)CP(=O)(O)OC[C@H]1O[C@@H](n2cnc3c(N4CCOCC4)nc(Cl)nc32)[C@@H](F)[C@@H]1O`, the IC50 was < 100 nM.

Consider `O=P(O)(O)CP(=O)(O)OC[C@H]1O[C@@H](n2cnc3c(N4Cc5ccccc5C4)nc(Cl)nc32)[C@@H](F)[C@@H]1O`, for which the IC50 was < 100 nM.

Take `O=P(O)(O)CP(=O)(O)OC[C@H]1O[C@@H](n2cnc3c(NCc4ccc(Cl)cc4)nc(Cl)nc32)[C@@H](F)[C@@H]1O`: the IC50 was < 100 nM.

Consider `O=P(O)(O)CP(=O)(O)OC[C@H]1O[C@@H](n2cnc3c(NCc4ccc(F)cc4)nc(Cl)nc32)[C@@H](F)[C@@H]1O`, for which the IC50 is < 100 nM.

Take `Cc1cccc(CNc2nc(Cl)nc3c2ncn3[C@@H]2O[C@H](COP(=O)(O)CP(=O)(O)O)[C@@H](O)[C@@H]2F)c1`: the IC50 was < 100 nM.
